Data published in ChEMBL document CHEMBL1201862, “PubChem BioAssay data set” (2004).
Active and inactive are the calls of the source.

What was measured:
SUMO-activating enzyme [1] = biological target: T1, SUMO-activating enzyme (Homo sapiens, UniProt Q9UBT2); test: blockers of UBC9-mediated SUMO conjugation – biochemical, AlphaScreen, SUMOylation inhibitor project, confirmation (AID 2018); type: functional
SUMO-activating enzyme [2] = biological target: T1, SUMO-activating enzyme; test: blockers of SAE1/SAE2–UBC9 SUMO transfer – biochemical, HTRF, uHTS, primary screen (AID 2006); type: protein-complex assay
[3] = non-specific 3'UTR reporter inhibition in Clone20-Shn3RL – cell-based, Renilla luciferase, cherry-picked, counter-screen for Shn3 inhibitor project, dose response (AID 624133); type: functional
[4] = viability of uninfected HEp-2 cells – cell-based, HTS, cytotoxicity control for RSV inhibitor project, dose response (AID 2410); type: functional; conditions: human respiratory syncytial virus
[5] = loss of viability in HepG2 cells – cell-based, CellTiter-Glo, cherry-picked, cytotoxicity control for Shn3 inhibitor project, dose response (AID 624134); type: functional
[6] = reduction of Shn3 3'UTR-driven luciferase in osteoblasts – cell-based, Clone20 osteoblasts, firefly luciferase, cherry-picked, dose response (AID 624132); type: functional;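 also: firefly luciferase luminescence from reporter carrying the Shn3 3'UTR in osteoblasts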
[7] = biological target: Voltage-dependent T-type calcium channel subunit alpha-1H (Homo sapiens, UniProt O95180); type: functional;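 also: channel activity triggered by adding a high calcium stimulation buffer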
Sequence of Voltage-dependent T-type calcium channel subunit alpha-1H (O95180 whole entry): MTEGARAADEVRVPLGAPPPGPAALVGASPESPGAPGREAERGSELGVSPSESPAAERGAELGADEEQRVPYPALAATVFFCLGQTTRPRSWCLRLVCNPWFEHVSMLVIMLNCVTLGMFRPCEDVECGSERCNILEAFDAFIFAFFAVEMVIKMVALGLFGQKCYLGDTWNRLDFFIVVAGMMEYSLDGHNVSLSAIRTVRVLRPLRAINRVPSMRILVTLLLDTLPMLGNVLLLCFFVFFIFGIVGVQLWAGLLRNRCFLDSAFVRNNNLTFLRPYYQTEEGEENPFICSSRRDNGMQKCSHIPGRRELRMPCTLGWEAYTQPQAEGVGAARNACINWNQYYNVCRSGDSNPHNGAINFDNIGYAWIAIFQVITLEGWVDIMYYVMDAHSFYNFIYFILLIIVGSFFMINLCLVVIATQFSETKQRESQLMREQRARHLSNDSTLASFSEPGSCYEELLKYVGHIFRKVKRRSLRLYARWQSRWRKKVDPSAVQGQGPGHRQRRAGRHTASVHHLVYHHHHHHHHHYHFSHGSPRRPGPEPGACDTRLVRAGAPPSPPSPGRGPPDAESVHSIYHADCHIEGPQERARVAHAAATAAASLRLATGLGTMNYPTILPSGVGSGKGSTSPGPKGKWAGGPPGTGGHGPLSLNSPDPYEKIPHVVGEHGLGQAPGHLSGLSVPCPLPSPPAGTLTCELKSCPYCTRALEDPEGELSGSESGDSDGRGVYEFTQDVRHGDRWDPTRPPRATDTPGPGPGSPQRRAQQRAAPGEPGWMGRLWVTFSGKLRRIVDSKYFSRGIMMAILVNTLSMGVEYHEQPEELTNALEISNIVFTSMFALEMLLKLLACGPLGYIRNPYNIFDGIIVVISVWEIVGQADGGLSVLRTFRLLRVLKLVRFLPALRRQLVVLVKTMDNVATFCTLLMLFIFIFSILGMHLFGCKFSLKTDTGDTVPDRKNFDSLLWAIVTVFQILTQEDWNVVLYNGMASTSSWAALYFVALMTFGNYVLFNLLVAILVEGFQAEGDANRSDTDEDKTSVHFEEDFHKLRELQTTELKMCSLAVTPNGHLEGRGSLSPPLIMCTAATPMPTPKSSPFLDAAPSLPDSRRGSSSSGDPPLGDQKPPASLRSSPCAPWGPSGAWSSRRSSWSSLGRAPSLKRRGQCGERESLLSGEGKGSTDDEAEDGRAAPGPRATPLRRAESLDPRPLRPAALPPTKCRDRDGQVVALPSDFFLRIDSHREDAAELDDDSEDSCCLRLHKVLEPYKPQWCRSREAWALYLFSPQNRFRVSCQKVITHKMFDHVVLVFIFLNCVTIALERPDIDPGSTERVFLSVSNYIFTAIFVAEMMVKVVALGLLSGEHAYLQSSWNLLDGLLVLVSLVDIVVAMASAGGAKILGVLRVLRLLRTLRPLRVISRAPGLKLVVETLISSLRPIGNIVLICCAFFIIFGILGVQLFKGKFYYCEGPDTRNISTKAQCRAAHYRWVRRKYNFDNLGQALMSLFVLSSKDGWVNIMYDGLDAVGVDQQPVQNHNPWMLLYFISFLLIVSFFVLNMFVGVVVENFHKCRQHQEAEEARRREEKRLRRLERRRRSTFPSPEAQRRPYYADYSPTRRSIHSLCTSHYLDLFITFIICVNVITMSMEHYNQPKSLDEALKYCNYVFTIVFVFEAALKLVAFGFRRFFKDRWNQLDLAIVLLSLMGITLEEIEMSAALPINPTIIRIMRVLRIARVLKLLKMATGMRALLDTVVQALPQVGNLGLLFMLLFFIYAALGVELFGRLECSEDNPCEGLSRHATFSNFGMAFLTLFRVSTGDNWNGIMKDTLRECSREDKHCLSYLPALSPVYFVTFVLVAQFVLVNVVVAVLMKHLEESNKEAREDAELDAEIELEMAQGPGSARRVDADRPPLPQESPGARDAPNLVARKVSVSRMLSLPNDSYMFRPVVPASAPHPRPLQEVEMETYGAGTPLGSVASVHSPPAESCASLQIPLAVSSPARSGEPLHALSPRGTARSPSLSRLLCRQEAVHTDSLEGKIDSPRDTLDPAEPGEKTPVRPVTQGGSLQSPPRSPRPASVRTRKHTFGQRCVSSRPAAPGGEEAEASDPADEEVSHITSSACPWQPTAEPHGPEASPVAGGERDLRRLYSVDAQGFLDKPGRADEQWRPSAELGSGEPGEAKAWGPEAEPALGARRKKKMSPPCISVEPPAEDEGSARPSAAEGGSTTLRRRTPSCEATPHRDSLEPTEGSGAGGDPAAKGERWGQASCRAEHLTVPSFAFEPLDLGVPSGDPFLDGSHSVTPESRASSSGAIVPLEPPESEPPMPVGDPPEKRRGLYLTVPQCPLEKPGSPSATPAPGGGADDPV

Exodeoxyribonuclease V = biological target: T2, Exodeoxyribonuclease V (Escherichia coli (strain K12), UniProt P04993+P07648+P08394); test: RecBCD inhibition via phage-restricted bacterial growth – absorbance, V66 E. coli, mutant T4 phage, counter-screen for AddAB inhibitor project, dose response (AID 492957); type: functional, cell-based, Escherichia coli str. K-12 substr. MG1655
T2 sequence (P04993 whole entry): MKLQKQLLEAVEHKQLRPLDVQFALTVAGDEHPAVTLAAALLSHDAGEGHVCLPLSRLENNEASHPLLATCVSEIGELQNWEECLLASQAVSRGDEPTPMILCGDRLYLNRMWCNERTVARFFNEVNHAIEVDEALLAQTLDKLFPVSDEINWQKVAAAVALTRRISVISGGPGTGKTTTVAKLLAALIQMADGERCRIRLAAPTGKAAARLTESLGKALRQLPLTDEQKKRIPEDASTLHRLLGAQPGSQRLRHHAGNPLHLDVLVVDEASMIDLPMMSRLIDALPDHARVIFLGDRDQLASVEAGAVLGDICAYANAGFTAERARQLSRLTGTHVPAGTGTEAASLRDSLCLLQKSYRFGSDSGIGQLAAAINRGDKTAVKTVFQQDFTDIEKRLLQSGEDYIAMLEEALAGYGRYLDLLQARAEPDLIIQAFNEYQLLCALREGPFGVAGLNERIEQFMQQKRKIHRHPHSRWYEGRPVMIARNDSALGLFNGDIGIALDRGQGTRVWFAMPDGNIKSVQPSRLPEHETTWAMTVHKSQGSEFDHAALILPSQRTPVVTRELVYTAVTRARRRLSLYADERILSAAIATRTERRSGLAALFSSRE
T2 sequence (P07648 whole entry): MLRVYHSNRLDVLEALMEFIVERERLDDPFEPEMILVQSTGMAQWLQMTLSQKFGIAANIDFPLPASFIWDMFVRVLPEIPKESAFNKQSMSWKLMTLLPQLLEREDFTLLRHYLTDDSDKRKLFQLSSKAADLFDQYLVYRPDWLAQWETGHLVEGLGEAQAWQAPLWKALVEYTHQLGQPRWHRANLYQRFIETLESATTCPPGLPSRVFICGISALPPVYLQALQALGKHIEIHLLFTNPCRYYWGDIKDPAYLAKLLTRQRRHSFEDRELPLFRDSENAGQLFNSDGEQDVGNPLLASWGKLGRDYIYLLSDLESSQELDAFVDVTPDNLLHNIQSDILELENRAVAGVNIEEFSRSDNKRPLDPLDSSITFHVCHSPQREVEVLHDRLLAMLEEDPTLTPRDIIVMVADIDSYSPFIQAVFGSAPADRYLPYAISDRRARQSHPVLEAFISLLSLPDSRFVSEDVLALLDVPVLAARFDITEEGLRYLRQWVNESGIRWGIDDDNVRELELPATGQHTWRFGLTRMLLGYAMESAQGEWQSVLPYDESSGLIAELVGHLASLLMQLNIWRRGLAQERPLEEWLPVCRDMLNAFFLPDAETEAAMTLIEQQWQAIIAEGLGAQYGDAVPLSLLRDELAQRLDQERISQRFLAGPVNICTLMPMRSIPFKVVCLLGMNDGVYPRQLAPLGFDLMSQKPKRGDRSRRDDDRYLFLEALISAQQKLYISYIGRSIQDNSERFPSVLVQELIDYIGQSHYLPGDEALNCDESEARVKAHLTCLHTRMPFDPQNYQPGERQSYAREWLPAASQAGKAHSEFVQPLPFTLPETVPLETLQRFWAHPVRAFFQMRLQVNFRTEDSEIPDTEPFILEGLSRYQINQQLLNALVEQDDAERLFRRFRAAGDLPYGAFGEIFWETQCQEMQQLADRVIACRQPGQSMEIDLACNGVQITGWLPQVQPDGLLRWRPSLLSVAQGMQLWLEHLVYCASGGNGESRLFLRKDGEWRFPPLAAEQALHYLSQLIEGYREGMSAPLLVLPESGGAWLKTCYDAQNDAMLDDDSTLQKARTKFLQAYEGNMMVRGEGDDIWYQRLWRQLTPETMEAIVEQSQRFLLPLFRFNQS
T2 sequence (P08394 whole entry): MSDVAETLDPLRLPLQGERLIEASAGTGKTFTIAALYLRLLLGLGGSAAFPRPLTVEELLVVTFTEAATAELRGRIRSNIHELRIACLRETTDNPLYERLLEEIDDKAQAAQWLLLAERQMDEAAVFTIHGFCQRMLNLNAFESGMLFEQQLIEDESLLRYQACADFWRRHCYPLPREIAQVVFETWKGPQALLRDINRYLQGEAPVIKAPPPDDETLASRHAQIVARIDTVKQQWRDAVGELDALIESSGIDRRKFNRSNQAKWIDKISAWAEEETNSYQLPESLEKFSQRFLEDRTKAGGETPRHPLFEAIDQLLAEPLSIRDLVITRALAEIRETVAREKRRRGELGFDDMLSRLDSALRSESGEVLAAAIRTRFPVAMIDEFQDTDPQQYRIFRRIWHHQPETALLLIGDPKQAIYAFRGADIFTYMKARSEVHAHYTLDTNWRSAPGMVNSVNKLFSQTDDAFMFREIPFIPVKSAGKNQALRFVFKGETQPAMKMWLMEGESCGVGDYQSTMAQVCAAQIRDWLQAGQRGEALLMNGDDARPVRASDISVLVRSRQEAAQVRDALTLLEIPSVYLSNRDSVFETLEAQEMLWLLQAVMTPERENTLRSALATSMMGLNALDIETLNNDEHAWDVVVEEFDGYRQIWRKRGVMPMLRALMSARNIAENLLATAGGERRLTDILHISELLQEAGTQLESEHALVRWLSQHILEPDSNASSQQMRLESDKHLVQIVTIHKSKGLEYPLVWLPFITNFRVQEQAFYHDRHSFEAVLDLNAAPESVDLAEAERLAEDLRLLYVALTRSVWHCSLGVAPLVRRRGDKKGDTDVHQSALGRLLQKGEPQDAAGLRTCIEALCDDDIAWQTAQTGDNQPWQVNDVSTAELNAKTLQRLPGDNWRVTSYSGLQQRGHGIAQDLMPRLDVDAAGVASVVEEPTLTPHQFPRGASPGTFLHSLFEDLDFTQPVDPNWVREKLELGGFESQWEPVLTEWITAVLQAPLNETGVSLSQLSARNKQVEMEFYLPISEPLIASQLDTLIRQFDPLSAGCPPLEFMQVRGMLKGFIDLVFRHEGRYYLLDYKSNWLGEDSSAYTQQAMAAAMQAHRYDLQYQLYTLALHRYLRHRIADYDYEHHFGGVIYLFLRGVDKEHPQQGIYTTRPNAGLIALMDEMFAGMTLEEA

[8] = Counterscreen for AddAB inhibitors: absorbance-based bacterial cell-based high throughput dose response assay for inhibitors of bacterial viability. [Related pubchem assays (depositor defined):AID435030, AID449728, AID449731, AID488942, AID488955, AID488956]; type: functional
[9] = biological target: Polyadenylate-binding protein 1 (Homo sapiens, UniProt P11940); test: blockers of PABP interaction with poly(A) – biochemical, fluorescence polarization, […] (AID 2014)
Sequence of Polyadenylate-binding protein 1 (P11940 whole entry): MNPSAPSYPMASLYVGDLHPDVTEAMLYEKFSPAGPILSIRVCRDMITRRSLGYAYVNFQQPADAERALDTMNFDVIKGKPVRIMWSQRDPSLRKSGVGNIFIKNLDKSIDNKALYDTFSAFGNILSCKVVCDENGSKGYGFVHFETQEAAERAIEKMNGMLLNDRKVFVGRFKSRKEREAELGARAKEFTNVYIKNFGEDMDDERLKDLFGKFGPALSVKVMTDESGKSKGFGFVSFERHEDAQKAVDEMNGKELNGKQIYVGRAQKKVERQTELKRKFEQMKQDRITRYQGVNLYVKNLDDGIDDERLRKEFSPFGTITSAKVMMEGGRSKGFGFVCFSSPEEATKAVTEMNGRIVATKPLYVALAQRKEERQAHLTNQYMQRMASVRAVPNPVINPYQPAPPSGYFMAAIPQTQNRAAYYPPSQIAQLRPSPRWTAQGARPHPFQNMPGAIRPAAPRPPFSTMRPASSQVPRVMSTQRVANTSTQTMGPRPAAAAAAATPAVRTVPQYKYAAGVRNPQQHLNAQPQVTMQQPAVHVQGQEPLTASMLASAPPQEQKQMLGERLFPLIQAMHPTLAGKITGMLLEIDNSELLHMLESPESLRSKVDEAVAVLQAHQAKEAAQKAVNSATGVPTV

[10] = biological target: Eukaryotic translation initiation factor 4H (Homo sapiens, UniProt Q15056); test: eIF4H binding inhibition – biochemical, uHTS, fluorescence polarization, translation initiation inhibitor project, primary screen (AID 2012)
[11] = biological target: T3, Apoptotic protease-activating factor 1 (Homo sapiens, UniProt O14727); type: functional
T3 sequence (O14727 whole entry): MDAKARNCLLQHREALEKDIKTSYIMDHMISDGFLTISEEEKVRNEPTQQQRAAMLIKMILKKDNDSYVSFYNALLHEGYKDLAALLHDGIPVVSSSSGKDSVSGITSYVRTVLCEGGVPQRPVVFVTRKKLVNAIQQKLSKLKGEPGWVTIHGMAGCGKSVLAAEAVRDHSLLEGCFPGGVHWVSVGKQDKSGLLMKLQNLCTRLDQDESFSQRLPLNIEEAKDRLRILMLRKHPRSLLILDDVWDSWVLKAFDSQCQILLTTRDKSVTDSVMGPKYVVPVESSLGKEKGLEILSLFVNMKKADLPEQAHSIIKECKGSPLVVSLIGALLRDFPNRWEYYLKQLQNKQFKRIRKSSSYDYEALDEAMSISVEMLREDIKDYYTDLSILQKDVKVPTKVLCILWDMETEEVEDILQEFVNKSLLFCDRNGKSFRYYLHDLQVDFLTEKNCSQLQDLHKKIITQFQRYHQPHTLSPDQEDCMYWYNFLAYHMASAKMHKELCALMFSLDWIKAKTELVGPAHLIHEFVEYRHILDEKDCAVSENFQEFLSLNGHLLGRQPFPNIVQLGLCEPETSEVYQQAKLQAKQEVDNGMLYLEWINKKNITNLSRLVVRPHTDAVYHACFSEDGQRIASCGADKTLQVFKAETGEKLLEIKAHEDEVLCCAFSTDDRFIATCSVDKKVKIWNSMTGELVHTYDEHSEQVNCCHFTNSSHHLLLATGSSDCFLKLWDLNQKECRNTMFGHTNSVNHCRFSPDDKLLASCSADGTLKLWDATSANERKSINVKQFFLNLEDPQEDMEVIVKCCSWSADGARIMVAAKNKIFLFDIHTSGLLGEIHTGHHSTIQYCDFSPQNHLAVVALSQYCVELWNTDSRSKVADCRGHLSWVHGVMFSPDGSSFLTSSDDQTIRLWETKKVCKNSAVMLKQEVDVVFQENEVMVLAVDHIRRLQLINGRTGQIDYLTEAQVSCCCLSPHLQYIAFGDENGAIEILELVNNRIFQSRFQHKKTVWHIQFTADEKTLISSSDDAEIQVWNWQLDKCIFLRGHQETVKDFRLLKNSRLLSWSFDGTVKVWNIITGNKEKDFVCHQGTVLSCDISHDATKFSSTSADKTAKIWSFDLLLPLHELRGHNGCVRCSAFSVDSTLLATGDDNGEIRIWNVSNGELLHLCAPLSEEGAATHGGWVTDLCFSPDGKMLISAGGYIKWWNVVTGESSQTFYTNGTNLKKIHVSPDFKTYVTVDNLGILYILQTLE

[12] = biological target: T4, Tyrosyl-DNA phosphodiesterase 2 (Homo sapiens, UniProt O95551); test: potency against TDP2 phosphodiesterase activity – biochemical, epi absorbance, IC50, dose response (AID 743297)
T4 sequence (O95551 whole entry): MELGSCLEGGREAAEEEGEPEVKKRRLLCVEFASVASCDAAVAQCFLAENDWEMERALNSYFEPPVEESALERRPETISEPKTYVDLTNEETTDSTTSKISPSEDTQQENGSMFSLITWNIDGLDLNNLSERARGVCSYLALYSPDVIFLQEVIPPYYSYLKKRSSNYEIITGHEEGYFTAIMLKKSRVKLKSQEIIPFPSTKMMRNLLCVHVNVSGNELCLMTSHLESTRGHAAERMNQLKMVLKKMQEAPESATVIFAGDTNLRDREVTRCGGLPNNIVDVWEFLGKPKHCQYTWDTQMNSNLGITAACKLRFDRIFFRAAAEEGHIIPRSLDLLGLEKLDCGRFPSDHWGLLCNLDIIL

Genome polyprotein = Genome polyprotein (dengue virus type 2, UniProt P29990); test: flavivirus cap methylation enzyme inhibition – biochemical, confirmation dose response, primary screen (AID 588689); type: functional
Trypsin = Trypsin (Sus scrofa, UniProt P00761); test: trypsin protease activity blockade – biochemical, quenched peptide fluorescence, cherry-pick, selectivity assay for Rce1 protease inhibitor project, dose response (AID 488789)
Sequence of Trypsin (P00761 whole entry): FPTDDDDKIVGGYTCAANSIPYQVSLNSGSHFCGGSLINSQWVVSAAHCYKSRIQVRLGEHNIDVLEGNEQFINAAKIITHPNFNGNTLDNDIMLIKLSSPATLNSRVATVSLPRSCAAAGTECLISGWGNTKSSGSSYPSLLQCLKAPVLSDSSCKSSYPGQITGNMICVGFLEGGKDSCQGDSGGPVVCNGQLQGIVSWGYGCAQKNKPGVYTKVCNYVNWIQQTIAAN

cells = type: functional
[13] = HepG2 cell cytotoxicity, dose response, cytotoxicity control for non-replicating M. tuberculosis project (AID 489018); type: functional; conditions: Mycobacterium tuberculosis
[14] = THP-1 cell cytotoxicity, dose response, cytotoxicity control for non-replicating M. tuberculosis project (AID 489025); type: functional

T1 sequence (Q9UBE0 whole entry): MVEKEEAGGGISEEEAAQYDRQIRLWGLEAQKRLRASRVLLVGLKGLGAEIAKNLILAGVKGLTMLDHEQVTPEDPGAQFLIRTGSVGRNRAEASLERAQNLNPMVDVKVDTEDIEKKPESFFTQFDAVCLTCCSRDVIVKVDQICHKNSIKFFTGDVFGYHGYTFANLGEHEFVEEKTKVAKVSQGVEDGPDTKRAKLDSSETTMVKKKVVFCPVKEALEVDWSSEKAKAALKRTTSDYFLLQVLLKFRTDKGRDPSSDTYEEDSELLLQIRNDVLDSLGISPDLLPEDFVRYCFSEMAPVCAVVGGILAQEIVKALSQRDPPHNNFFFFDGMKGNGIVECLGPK
T1 sequence (Q9UBT2 whole entry): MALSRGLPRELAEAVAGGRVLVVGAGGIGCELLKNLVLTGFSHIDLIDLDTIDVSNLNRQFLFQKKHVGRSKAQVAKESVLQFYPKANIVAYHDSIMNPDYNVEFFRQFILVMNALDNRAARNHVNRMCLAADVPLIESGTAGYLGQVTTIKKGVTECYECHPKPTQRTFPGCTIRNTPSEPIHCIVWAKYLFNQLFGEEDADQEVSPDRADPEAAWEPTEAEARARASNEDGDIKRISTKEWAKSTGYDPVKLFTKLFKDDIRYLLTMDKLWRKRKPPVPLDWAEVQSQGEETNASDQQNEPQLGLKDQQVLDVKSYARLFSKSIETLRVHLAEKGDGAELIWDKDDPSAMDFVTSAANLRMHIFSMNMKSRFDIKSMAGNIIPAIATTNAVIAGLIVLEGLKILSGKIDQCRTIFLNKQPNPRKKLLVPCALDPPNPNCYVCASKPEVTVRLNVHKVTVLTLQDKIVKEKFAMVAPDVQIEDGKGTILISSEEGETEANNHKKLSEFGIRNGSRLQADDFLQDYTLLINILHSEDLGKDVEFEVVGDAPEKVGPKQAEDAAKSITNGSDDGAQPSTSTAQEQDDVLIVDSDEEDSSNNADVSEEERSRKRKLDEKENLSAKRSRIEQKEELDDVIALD

Cc1cc(/C=C2\C(=N)N3N=C(c4ccco4)SC3=NC2=O)c(C)n1Cc1ccccc1
IC50 (SUMO-activating enzyme [1]): 8.55 µM (active) | IC50 (SUMO-activating enzyme [2]): 7.54 µM (active)

CC(C)(C)n1nnnc1C(c1ccc(C(F)(F)F)cc1)N(Cc1ccc(F)cc1)Cc1ccco1 (stereo not given)
AC50 [3]: 18.8 µM (active) | CC50 [4]: 10.3 µM (active) | AC50 [5]: 40.3 µM (active) | AC50 [6]: 10.1 µM (active) | EC50 [7]: 2.84 µM (active)

C/C(=N\NC1=NC(=O)C(CC(=O)O)S1)c1ccccn1 (stereo not given)
IC50 (Exodeoxyribonuclease V): 73.3 µM (inactive) | IC50 [8]: > 118 µM (inactive)

Cc1cccc(NC(=O)CNc2cc(C)ccc2C)c1
EC50 [7]: 15.2 µM (active)

CCN1CCN(c2nc3ccccc3nc2C(C#N)C(=O)OCc2ccccc2)CC1 (stereo not given)
IC50 [9]: 44.8 µM (active) | IC50 [10]: 93.8 µM (active)

O=C(Nc1ccc(S(=O)(=O)N2CCCCCC2)cc1)c1ccc(Br)o1
EC50 [7]: 7.13 µM (active)

CC/C(=N\n1nnnc1Nc1ccccc1)c1ccccc1
EC50 [7]: 5.34 µM (active)

COc1cc(C(c2c(C)[nH]n(-c3ccccc3)c2=O)c2c(C)[nH]n(-c3ccccc3)c2=O)cc(OC)c1OC
IC50 [11]: 24.4 µM (active) | IC50 (SUMO-activating enzyme [1]): 6.66 µM (active) | IC50 [12]: 19.9 µM (inactive) | IC50 (Genome polyprotein): 38.3 µM (active) | IC50 (SUMO-activating enzyme [2]): 33.9 µM (active)

COc1c2ccoc2nc2c(OC)cccc12 [GAMMA-FAGARINE]
AC50 (Trypsin): 9.78 µM (active)

CC1=CC(C)C2C(=O)N(CCC[N+](C)(C)C)C(=O)C2C1 (stereo not given)
IC50 [9]: 6.94 µM (active) | IC50 [10]: 97.8 µM (active)

COc1ccc(C(=O)Oc2cccc3cccnc23)cc1S(=O)(=O)N1CCOCC1
IC50 (cells): 6.24 µM (active) | CC50 [13]: 18 µM (active) | CC50 [14]: 26.6 µM (active)
